The source of these data is PMC6271338, “Synthesis and Cytotoxic Evaluation of Alkoxylated Chalcones” (Molecules, 2014).

One data set concerns SW1990 cells. Briefly: In vitro anti-proliferative SRB assay, SW1990. The data set is classed as cell-based, human. The settings on record: for IC50: Homo sapiens, SW1990, increasing concentrations up to 30 μM, mean ± SD of at least three independent experiments; for SI (CC50 HMLE/IC50 SW1990) / SI (CC50 L02/IC50 SW1990): selectivity index; for SI (CC50 HMLE/IC50 SW1990): HMLE vs SW1990; for SI (CC50 L02/IC50 SW1990): L02 vs SW1990. A general note: Sulforhodamine B stains cellular protein and so reports cell mass.

The subject of the next data set is MCF-7 cells. In words: In vitro anti-proliferative SRB assay, MCF-7. The data set is classed as cell-based, human. The settings on record: for IC50: Homo sapiens, MCF7, increasing concentrations up to 30 μM, mean ± SD of at least three independent experiments; for SI (CC50 HMLE/IC50 MCF7) / SI (CC50 L02/IC50 MCF7): selectivity index; for SI (CC50 HMLE/IC50 MCF7): HMLE vs MCF7; for SI (CC50 L02/IC50 MCF7): L02 vs MCF7.

Data set [1] in a line: Cytotoxicity (SRB) against non-tumoral HMLE cells. The data set is classed as cell-based, human. The settings on record: human, HMLE cells (non-tumoral human mammary epithelial cells); increasing concentrations up to 100 μM; mean ± SD of at least three independent experiments; read-out: Normal Human Cell Lines, CC50, HMLE.
The subject of a further data set is HepG2 cells. Briefly: In vitro anti-proliferative SRB assay, HepG2. The data set is classed as cell-based, human. The settings on record: for IC50: Homo sapiens, HepG2, increasing concentrations up to 30 μM, mean ± SD of at least three independent experiments; for SI (CC50 HMLE/IC50 HepG2) / SI (CC50 L02/IC50 HepG2): selectivity index; for SI (CC50 HMLE/IC50 HepG2): HMLE vs HepG2; for SI (CC50 L02/IC50 HepG2): L02 vs HepG2.

Another data set concerns HeLa cells. In words: In vitro anti-proliferative SRB assay, HeLa. The data set is classed as cell-based, human. The settings on record: for IC50: Homo sapiens, HeLa, increasing concentrations up to 30 μM, mean ± SD of at least three independent experiments; for SI (CC50 HMLE/IC50 Hela) / SI (CC50 L02/IC50 Hela): selectivity index; for SI (CC50 HMLE/IC50 Hela): HMLE vs HeLa; for SI (CC50 L02/IC50 Hela): L02 vs HeLa.

A short description of data set [2]: Cytotoxicity (SRB) against non-tumoral L02 cells. It counts as cell-based, human. The settings on record: human, L02 cells (non-tumoral human liver cell line); increasing concentrations up to 100 μM; mean ± SD of at least three independent experiments; read-out: Normal Human Cell Lines, CC50, L02.
For another data set, the system named is A549 cells. Briefly: In vitro anti-proliferative SRB assay, A549. The settings on record: for IC50: Homo sapiens, A549, increasing concentrations up to 30 μM, mean ± SD of at least three independent experiments; for SI (CC50 HMLE/IC50 A549) / SI (CC50 L02/IC50 A549): selectivity index; for SI (CC50 HMLE/IC50 A549): HMLE vs A549; for SI (CC50 L02/IC50 A549): L02 vs A549. It counts as cell-based, human.

Some results are limits rather than exact numbers.

By IC50 is commonly meant the concentration that gives 50% inhibition. As usually defined, the melting point is the temperature, or range, at which the solid turns liquid. By CC50 is commonly meant the concentration that lowers cell viability or growth by half.

`CCOc1ccc(C(=O)/C=C/c2c(OC)cccc2OC)cc1` [b10, (E)-1-(4-Ethoxyphenyl)-3-(2,6-dimethoxyphenyl)prop-2-en-1-one] gave a melting point of 99 to 101.2 °C. Also, in the data set on SW1990 cells, it took 19.5 ± 0.23 µM to reach half-maximal inhibition (IC50), the “SI (CC50 HMLE/IC50 SW1990)” value was found to be 0.7 and the “SI (CC50 L02/IC50 SW1990)” value is 1.9. In the data set with MCF-7 cells, half-maximal inhibition (IC50) was put at 19.8 ± 0.69 µM, the “SI (CC50 HMLE/IC50 MCF7)” value stood at 0.7 and the “SI (CC50 L02/IC50 MCF7)” value amounted to 1.9. The CC50 at 48 h in data set [1] worked out at 13.8 ± 3.77 µM. For the same molecule, in the data set on HepG2 cells, the 50% inhibitory concentration (IC50) was determined as 10.9 ± 0.46 µM, the “SI (CC50 HMLE/IC50 HepG2)” value came out at 1.3 and the “SI (CC50 L02/IC50 HepG2)” value was 3.4. In the data set on HeLa cells, the IC50 was 14.4 ± 0.15 µM, the “SI (CC50 HMLE/IC50 Hela)” value is on record as 1.0 and the “SI (CC50 L02/IC50 Hela)” value is 2.6. Further, the 50% cytotoxic concentration (CC50) at 48 h in data set [2] is 36.7 ± 3.41 µM. For the same molecule, in the data set on A549 cells, the IC50 stood at 22.7 ± 0.57 µM, the “SI (CC50 HMLE/IC50 A549)” value was 0.6 and the “SI (CC50 L02/IC50 A549)” value stood at 1.6.

In turn, `COc1cccc(OC)c1/C=C/C(=O)c1ccc(OCc2ccccc2)cc1` [b13, (E)-1-(4-(Benzyloxy)phenyl)-3-(2,6-dimethoxyphenyl)prop-2-en-1-one] displayed a melting point of 96.6 to 97.8 °C. Also, the 50% inhibitory concentration (IC50) in the data set with SW1990 cells was > 30 µM. The IC50 in the data set on MCF-7 cells was > 30 µM. Also, the CC50 at 48 h in data set [1] is > 100 µM. In addition, in the data set on HepG2 cells, the IC50 was 21.8 ± 0.62 µM, the “SI (CC50 HMLE/IC50 HepG2)” value was >4.6 and the “SI (CC50 L02/IC50 HepG2)” value was >4.6. In addition, the half-inhibitory concentration (IC50) with HeLa cells is > 30 µM. Moreover, in data set [2], the CC50 at 48 h is > 100 µM. The half-maximal inhibitory concentration (IC50) in the data set on A549 cells is > 30 µM.

For the molecule `COc1cccc(OC)c1/C=C/C(=O)c1ccc2c(c1)CCO2` [b21, (E)-1-(2,3-Dihydrobenzofuran-5-yl)-3-(2,6-dimethoxyphenyl)prop-2-en-1-one], the melting point lay within 118.8 to 120.2 °C. For the same molecule, in the data set with SW1990 cells, the IC50 was determined as 24.4 ± 0.6 µM, the “SI (CC50 HMLE/IC50 SW1990)” value is listed as 0.6 and the “SI (CC50 L02/IC50 SW1990)” value stood at 2.4. In the data set with MCF-7 cells, 22.6 ± 2.1 µM corresponded to half-maximal inhibition (IC50), the “SI (CC50 HMLE/IC50 MCF7)” value was determined as 0.6 and the “SI (CC50 L02/IC50 MCF7)” value came to 2.5. Moreover, the CC50 at 48 h in data set [1] was 14.6 ± 0.81 µM. In addition, in the data set with HepG2 cells, the IC50 was found to be 17.3 ± 0.23 µM, the “SI (CC50 HMLE/IC50 HepG2)” value is recorded as 0.8 and the “SI (CC50 L02/IC50 HepG2)” value is given as 3.3. In the data set on HeLa cells, half-maximal inhibition (IC50) required 21.6 ± 0.43 µM, the “SI (CC50 HMLE/IC50 Hela)” value is given as 0.7 and the “SI (CC50 L02/IC50 Hela)” value is given as 2.7. Moreover, the CC50 at 48 h in data set [2] amounted to 57.5 ± 13.6 µM. Besides, in the data set with A549 cells, half-maximal inhibition (IC50) was put at 22.3 ± 0.99 µM, the “SI (CC50 HMLE/IC50 A549)” value stood at 0.7 and the “SI (CC50 L02/IC50 A549)” value stood at 2.6.

`COc1cccc(OC)c1/C=C/C(=O)c1ccccc1C` [b2, (E)-1-(2-Methylphenyl)-3-(2,6-dimethoxyphenyl)prop-2-en-1-one] gave a melting point of 79.8 to 81.4 °C. Also, in the data set on SW1990 cells, the IC50 was > 30 µM, the “SI (CC50 HMLE/IC50 SW1990)” value is listed as <0.5 and the “SI (CC50 L02/IC50 SW1990)” value is <1.2. Also, in the data set on MCF-7 cells, the IC50 was 19.1 ± 2.11 µM, the “SI (CC50 HMLE/IC50 MCF7)” value came out at 0.8 and the “SI (CC50 L02/IC50 MCF7)” value stood at 1.9. The CC50 at 48 h in data set [1] was 15 ± 0.78 µM. Besides, in the data set with HepG2 cells, inhibition was half-maximal at 14.1 ± 1.84 µM (IC50), the “SI (CC50 HMLE/IC50 HepG2)” value is reported as 1.1 and the “SI (CC50 L02/IC50 HepG2)” value came out at 2.5. In the data set with HeLa cells, the IC50 was 18.4 ± 0.75 µM, the “SI (CC50 HMLE/IC50 Hela)” value is 0.8 and the “SI (CC50 L02/IC50 Hela)” value is 1.9. The half-maximal cytotoxic concentration (CC50) at 48 h in data set [2] was determined as 35.9 ± 3.4 µM. For the same molecule, in the data set with A549 cells, the IC50 was 25.5 ± 4.14 µM, the “SI (CC50 HMLE/IC50 A549)” value is listed as 0.6 and the “SI (CC50 L02/IC50 A549)” value stood at 1.4.
